Assay results published in article PMC2826142 (Journal of medicinal chemistry, 2010).
“Also recorded” adds a separate entry of the source.

Key:
[1] = target: T1, human adenosine A2A receptor (Homo sapiens, UniProt P29274); experiment: Radioligand displacement at A2AAR-HEK membranes; type: binding; conditions: for Max Displacement at A2AAR-HEK membranes: 10 µM of test compound; for A2A / A1 selectivity: mammalian membranes, A2AAR over A1AR
[2] = target: T2, human adenosine A1 receptor (Homo sapiens, UniProt P30542); experiment: Radioligand; type: binding; conditions: for inhibition at 10 µM: read-out: Max Displacement A1AR-CHO membranes
T2 sequence (P30542 1-326): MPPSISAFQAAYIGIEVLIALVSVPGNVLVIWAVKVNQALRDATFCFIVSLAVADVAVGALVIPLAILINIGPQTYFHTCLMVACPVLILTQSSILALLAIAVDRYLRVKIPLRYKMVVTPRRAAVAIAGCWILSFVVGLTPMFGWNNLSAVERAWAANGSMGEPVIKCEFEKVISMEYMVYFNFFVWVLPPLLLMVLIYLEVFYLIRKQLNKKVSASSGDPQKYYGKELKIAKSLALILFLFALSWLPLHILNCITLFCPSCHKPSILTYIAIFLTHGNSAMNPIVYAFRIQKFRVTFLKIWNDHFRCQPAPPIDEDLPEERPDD

[3] = target: T1, human adenosine A2A receptor; experiment: Functional cAMP accumulation assay; type: cell-based; conditions: 10 µM compound, 10 nM or 10 µM 3a
[4] = target: human A2AAR receptor (Homo sapiens, UniProt P29274); experiment: Competition binding with tritiated compound 1; conditions: for LE (experimental ligand efficiency): ligand binding energy per heavy atom, from Sf9 Ki
[5] = Visible sedimentation in binding assay; conditions: binding assay buffer
[6] = system: forskolin stimulated cAMP generation; experiment: Forskolin stimulated cAMP generation; type: cell-based; conditions: data not shown

T1 sequence (P29274 whole entry): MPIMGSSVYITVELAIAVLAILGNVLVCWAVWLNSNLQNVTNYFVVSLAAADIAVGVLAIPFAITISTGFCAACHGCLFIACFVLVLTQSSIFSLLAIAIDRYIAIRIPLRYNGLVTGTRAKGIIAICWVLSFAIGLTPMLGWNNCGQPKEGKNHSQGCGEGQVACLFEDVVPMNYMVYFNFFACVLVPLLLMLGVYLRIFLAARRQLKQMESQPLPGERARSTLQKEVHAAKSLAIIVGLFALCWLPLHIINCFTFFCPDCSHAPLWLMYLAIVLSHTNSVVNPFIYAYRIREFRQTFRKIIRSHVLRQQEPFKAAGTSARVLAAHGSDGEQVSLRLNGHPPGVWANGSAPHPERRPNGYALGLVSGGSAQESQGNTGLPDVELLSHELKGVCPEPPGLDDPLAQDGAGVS
Sequence of human A2AAR receptor (P29274 whole entry): as above

| SMILES | Ki [1] [nM] | Max Displacement at A2AAR-HEK membranes [1] [%] | A2A / A1 selectivity [1] [fold] | Ki [2] [nM] | inhibition at 10 µM [2] [%] | A2AAR affinity (in words) ([4]; Sf9 membranes) | other results |
| --- | --- | --- | --- | --- | --- | --- | --- |
| NC1=C(Nc2cccc(C(F)(F)F)c2)C(=O)c2ccccc2C1=O [compound 17] | 720 | 73 | >10. | > 10000 |  |  | A2AAR antagonist functional activity (in words) [3]: significant activity; LE (experimental ligand efficiency) [4]: ~ 0.4 kcal/mol per heavy atom |
| Nc1ccc(N)c2c1C(=O)c1ccccc1C2=O [compound 29] | 110 | 100 | 2.51 | 280 | 100 | sub-µM affinity |  |
| Nc1c(C(=O)c2ccccc2)oc2ccc(Br)cc12 [compound 16] |  |  |  |  |  | modest affinity | LE (experimental ligand efficiency) [4]: 0.38 kcal/mol per heavy atom |
| Nc1c(Oc2ccccc2)ccc2c1C(=O)c1ccccc1C2=O [compound 20] |  |  |  |  |  | low-µM affinity |  |
| Cn1c(=O)cc2c3c(c(N)ccc31)C(=O)c1ccccc1-2 [compound 35] | 200 | 100 | 0.75 | 150 | 100 | sub-µM affinity |  |
| COc1ccc(Cl)cc1Nc1nc(N)nc(-c2oc3ccccc3c2C)n1 [compound 9] | 490 | 41 | 2.94 | 1440 | 41 |  | A2AAR antagonist functional activity (in words) [3]: one of the highest among the tested ligands; concentration with visible sedimentation of the compound [5]: above 10 µM; Ki [4]: 30 nM; displacement of the hot ligand ([4]; Sf9 membranes, at 2 µM): up to 80% |
| CN1CCc2sc3nc(C(=O)Nc4ccc(F)cc4)c(N)cc3c2C1 [compound 7] |  |  |  |  |  |  | Ki [4]: 1900 nM |
| COc1ccc(N)c2c1C(=O)c1ccccc1C2=O [compound 26] | 100 | 100 | 2.74 | 260 | 100 | sub-µM affinity |  |
| Nc1ccc(-c2nc3c(N)cccc3[nH]2)cc1 [compound 57] |  |  |  |  |  |  | LE (experimental ligand efficiency) [4]: 0.32 kcal/mol per heavy atom |
| Nc1ccc(Cl)c2c1C(=O)c1ccccc1C2=O [compound 49] | 940 |  |  | 190 | 100 | sub-µM affinity |  |
| CC(=O)Oc1cccc(-c2nc(C(N)=O)c(N)o2)c1 [compound 46] |  |  |  |  |  | modest affinity | LE (experimental ligand efficiency) [4]: 0.32 kcal/mol per heavy atom |
| Nc1c(C(=O)Nc2nccs2)sc2nc3c(cc12)C(=O)CCC3 [compound 14] | 60 | 54 | 2.24 | 140 | 25 |  |  |
| Cc1ccc(N2C(=O)c3cccc(N)c3C2=O)cc1 [compound 21] |  | 57 | 0.13 | 390 | 86 | modest |  |
| N#Cc1c(N)nc2c(oc3ccccc32)c1-c1ccccc1 [compound 15] | 560 | 73 | 0.87 | 480 | 27 |  |  |
| N#Cc1c(N)nc2c(C(N)=O)c(Nc3ccccc3)sc2c1-c1ccccc1 [compound 8] | 1140 | 53 | 0.05 | 60 | 100 |  | A2AAR antagonist functional activity (in words) [3]: No A2AAR specific activity; also recorded: does not have any functional activity |
| Nc1cccc2c1C(=O)c1ccccc1C2=O [compound 28] |  |  |  |  |  | low-µM affinity |  |
| Nc1c(Sc2ccccc2)cc(Sc2ccccc2)c2c1C(=O)c1ccccc1C2=O [compound 38] |  |  |  |  |  | low-µM affinity |  |
| Cc1cccc(NC2=C(N)C(=O)c3ccccc3C2=O)c1 [compound 50] | 150 | 50 |  | 1750 | 27 |  | A2AAR antagonist functional activity (in words) [3]: significant activity; LE (experimental ligand efficiency) [4]: ~ 0.4 kcal/mol per heavy atom |
| Nc1c(C(=O)Nc2ccccc2F)sc2nc3c(cc12)C(=O)CCC3 [compound 6] | 60 | 48 | 1.42 | 90 | 32 |  | A2AAR antagonist functional activity (in words) [3]: the effect does not depend on agonist concentration; effect on forskolin stimulated cAMP generation [6]: inhibited |
| CN1CCc2nc3sc(C(=O)Nc4ccc(Cl)cc4)c(N)c3cc2C1 [compound 10] | > 10000 |  |  | 1120 | 28 |  | binding to the HEK293 expressed A2AAR protein (in words) ([1]; HEK293 membranes): did not show any substantial binding |
